Source: patent US8158657B2, “Heterocycles substituted pyridine derivatives and antifungal agent containing thereof” (Eisai R&D Management Co., Ltd., priority 2005, dated 2012)
Values after ≈ are worked out from the molar mass of the structure shown.

Tests used:
[1] = test system: C. albicans CAF2-1 strain; assay: Anti-Candida activity, MIC measurement; assay type: cell-based; details: CAF21STRAIN, C. albicans CAF2-1, RPMI1640, 42-48 hours at 35° C., visual inspection, read-out: Anti-Candida Activity (minimum inhibitory concentration, MIC)
Summary of the method: (§1)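 C. albicans CAF2-1 was grown 48 h at 30° C. in SDB and diluted in RPMI1640 to 1.2×10^3 cells/mL. Frozen A. fumigatus Tsukuba was diluted to 4.5×10^3 cells/mL. Compounds, two-fold serially diluted in DMSO from 2.5 mg/mL, were cultured aerobically with fungi for 42-48 h at 35° C.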

[2] = test system: C. albicans E81022 strain; assay: Experimental systemic candidal infection model in mice; assay type: in vivo; details: peroral, 3 times every 4 hours, female ICR mice, observed until 14 days after infection
Method: A standing culture of C. albicans E81022 strain was carried out for 48 hours at 30° C. in sabouraud dextrose agar medium (SDA), the recovered fungal cells were suspended in sterilized physiological saline. By counting the fungal number on cytometry plate, the suspension was diluted to 2×10^7 cells/mL with sterilized physiological saline to serve fungal inoculum.
The fungal inoculum was used in the amounts of 0.2 mL to inoculate 4.5 to 5.5 week-old female ICR mice in the tail vein (4×10^6 cells/mouse).
From 0.5 to 1 hour after fungal inoculation, 0.2 mL of agent solution (dissolved or suspended in sterilized physiological saline containing 6.5% dimethyl sulfoxide and 3.5% Tween 80) was administered into the stomach using a peroral probe, 3 times every 4 hours. The agent concentration was 2.5 mg/kg or 10 mg/kg, and the number of animals in one group was 5 animals.
The protective effect was determined by observing life/death until 14 days after infection and calculating the mean survival days.

[3] = test system: A. fumigatus Tsukuba strain; assay: Anti-Aspergillus activity, MIC measurement; assay type: cell-based; details: RPMI1640, 42-48 hours at 35° C., visual inspection, read-out: Anti-Aspergillus Activity (minimum inhibitory concentration, MIC)
Summary of the method: as §1

Compound	MIC [1]	Mean Survival Days ([2]; 2.5 mg/kg)	Mean Survival Days ([2]; 10 mg/kg)	MIC [3]
Nc1ncccc1-c1cc(Cc2ccc(OCc3ccc(F)cc3)nc2)no1 [Example 58, 3-(3-(6-(4-Fluoro-benzyloxy)-pyridin-3-ylmethyl)-isoxazol-5-yl)-pyridin-2-ylamine]	0.78 µg/mL (≈ 2.07 µM)	3.8 days	12.0 days	0.1 µg/mL (≈ 0.266 µM)
Nc1ccc(-c2cc(Cc3ccc(Oc4ccc(F)cc4)nc3)no2)c(N)n1 [Example 135, 3-(3-(6-(4-Fluoro-phenoxy)-pyridin-3-ylmethyl)-isoxazol-5-yl)-pyridin-2,6-diamine]	0.78 µg/mL (≈ 2.07 µM)	11.0 days	13.4 days	0.39 µg/mL (≈ 1.03 µM)
Nc1ccc(-c2cc(Cc3ccc(Oc4ccccc4)cc3)no2)c(N)n1 [Example 17, 3-(3-(4-Phenoxy-benzyl)-isoxazol-5-yl)-pyridin-2,6-diamine]	0.78 µg/mL (≈ 2.18 µM)	8.2 days	13.0 days	0.2 µg/mL (≈ 0.558 µM)
Cc1ccnc(COc2ccc(Cc3cc(-c4cccnc4N)on3)cc2)c1 [Example 11, 3-(3-(4-(4-Methyl-pyridin-2-ylmethoxy)-benzyl)-isoxazol-5-yl)-pyridin-2-ylamine]	0.1 µg/mL (≈ 0.269 µM)	8.2 days	13.6 days	0.39 µg/mL (≈ 1.05 µM)
Nc1ncccc1-c1cc(Cc2ccc(CNc3ccccc3)cc2)no1 [Example 73, 3-(3-(4-Phenylaminomethyl-benzyl)-isoxazol-5-yl)-pyridin-2-ylamine]	0.1 µg/mL (≈ 0.281 µM)	4.4 days	12.6 days	0.39 µg/mL (≈ 1.09 µM)
Nc1ccc(-c2cc(Cc3ccc(OCc4ccccc4)cc3)no2)c(N)n1 [Example 13, 3-(3-(4-Benzyloxy-benzyl)-isoxazol-5-yl)-pyridin-2,6-diamine]	0.2 µg/mL (≈ 0.537 µM)	13.8 days	14.0 days	0.1 µg/mL (≈ 0.269 µM)
Nc1ncccc1-c1cc(Cc2ccc(OCc3cccc(F)n3)cc2)no1 [Example 45, 3-(3-(4-(6-Fluoro-pyridin-2-ylmethoxy)-benzyl)-isoxazol-5-yl)-pyridin-2-ylamine]	0.39 µg/mL (≈ 1.04 µM)	10.6 days	10.8 days	0.2 µg/mL (≈ 0.531 µM)
Nc1ccc(-c2cc(Cc3ccc(COc4ccccn4)cc3)no2)c(N)n1 [Example 14]	0.39 µg/mL (≈ 1.04 µM)	13.4 days	14.0 days	0.39 µg/mL (≈ 1.04 µM)
Nc1ccc(-c2cc(Cc3ccc(Oc4cccc(F)c4)nc3)no2)c(N)n1 [Example 131, 3-(3-(6-(3-Fluoro-phenoxy)-pyridin-3-ylmethyl)-isoxazol-5-yl)-pyridin-2,6-diamine]	0.2 µg/mL (≈ 0.53 µM)	12.6 days	12.8 days	0.2 µg/mL (≈ 0.53 µM)
Nc1ccc(-c2cc(Cc3ccc(Cc4ccc(Cl)o4)cc3)no2)c(N)n1 [Example 120, 3-(3-(4-(5-Chloro-furan-2-ylmethyl)-benzyl)-isoxazol-5-yl)-pyridin-2,6-diamine]	0.39 µg/mL (≈ 1.02 µM)	3.2 days	13.4 days	0.2 µg/mL (≈ 0.525 µM)
Nc1ccc(-c2cc(Cc3ccc(OCc4cccc(Cl)n4)cc3)no2)c(N)n1 [Example 110, 3-(3-(4-(6-Chloro-pyridin-2-ylmethoxy)-benzyl)-isoxazol-5-yl)-pyridin-2,6-diamine]	0.78 µg/mL (≈ 1.91 µM)	12.0 days	–	0.78 µg/mL (≈ 1.91 µM)
c1ccc(OCc2ccc(Cc3cc(-c4cccnc4)on3)cc2)nc1 [Example 202, 3-(3-(4-(Pyridin-2-yloxymethyl)-benzyl)-isoxazol-5-yl)-pyridine]	0.05 µg/mL (≈ 0.146 µM)	2.4 days	10.0 days	0.2 µg/mL (≈ 0.582 µM)
Nc1ncccc1-c1cc(Cc2ccc(COc3ccccn3)cc2)no1 [Example 2, 3-(3-(4-(Pyridin-2-yloxymethyl)-benzyl)-isoxazol-5-yl)-pyridin-2-ylamine]	0.05 µg/mL (≈ 0.14 µM)	13.2 days	14.0 days	0.2 µg/mL (≈ 0.558 µM)
Nc1ncccc1-c1cnn(Cc2ccc(OCc3ccccc3)cc2)c1 [Example 31, 3-(1-(4-Benzyloxy-benzyl)-1H-pyrazol-4-yl)-pyridin-2-ylamine]	0.2 µg/mL (≈ 0.561 µM)	–	13.0 days	0.39 µg/mL (≈ 1.09 µM)
Nc1ccc(-c2cc(Cc3ccc(OCc4nccs4)cc3)no2)c(N)n1 [Example 151, 3-(3-(4-(Thiazol-2-ylmethoxy)-benzyl)-isoxazol-5-yl)-pyridin-2,6-diamine]	0.78 µg/mL (≈ 2.06 µM)	7.0 days	14.0 days	0.39 µg/mL (≈ 1.03 µM)
Nc1ncccc1-c1cc(Cc2ccc(OCc3ccccc3)nc2)no1 [Example 12, 3-(3-(6-Benzyloxy-pyridin-3-ylmethyl)-isoxazol-5-yl)-pyridin-2-ylamine]	0.1 µg/mL (≈ 0.279 µM)	10.8 days	14.0 days	0.1 µg/mL (≈ 0.279 µM)
Nc1ccc(-c2cnn(Cc3ccc(COc4ccccn4)cc3)c2)c(N)n1 [Example 37, 3-(1-(4-(Pyridin-2-yloxymethyl)-benzyl)-1H-pyrazol-4-yl)-pyridin-2,6-diamine]	0.39 µg/mL (≈ 1.05 µM)	5.4 days	14.0 days	1.56 µg/mL (≈ 4.19 µM)

Compound	MIC [1]	Mean Survival Days ([2]; 2.5 mg/kg)	Mean Survival Days ([2]; 10 mg/kg)	MIC [3]
COc1cccc(COc2ccc(Cc3cc(-c4ccc(N)nc4N)on3)cc2)n1 [Example 163, 3-(3-(4-(6-Methoxy-pyridin-2-ylmethoxy)-benzyl)-isoxazol-5-yl)-pyridin-2,6-diamine]	3.13 µg/mL (≈ 7.76 µM)	–	–	1.56 µg/mL (≈ 3.87 µM)
Nc1ncccc1-c1cnn(Cc2cccc(Oc3ccccc3)c2)c1 [Example 35, 3-(1-(3-Phenoxy-benzyl)-1H-pyrazol-4-yl)-pyridin-2-ylamine]	0.2 µg/mL (≈ 0.584 µM)	–	–	1.56 µg/mL (≈ 4.56 µM)
Nc1ncccc1-c1cc(Cc2ccc(Oc3ccc(F)cc3)nc2)no1 [Example 75, 3-(3-(6-(4-Fluoro-phenoxy)-pyridin-3-ylmethyl)-isoxazol-5-yl)-pyridin-2-ylamine]	0.78 µg/mL (≈ 2.15 µM)	–	–	0.2 µg/mL (≈ 0.552 µM)
Nc1ncccc1-c1cc(Cc2ccc(OCc3ccc(F)cn3)cc2F)no1 [Example 96, 3-(3-(2-Fluoro-4-(5-fluoro-pyridin-2-ylmethoxy)-benzyl)-isoxazol-5-yl)pyridin-2-ylamine]	3.13 µg/mL (≈ 7.94 µM)	–	–	0.78 µg/mL (≈ 1.98 µM)
Nc1ccc(-c2cc(Cc3cccc(OCC4CC4)c3)no2)c(N)n1 [Example 125, 3-(3-(3-Cyclopropylmethoxy-benzyl)-isoxazol-5-yl)-pyridin-2,6-diamine]	0.1 µg/mL (≈ 0.297 µM)	–	–	0.39 µg/mL (≈ 1.16 µM)
Nc1ncc(F)cc1-c1cc(Cc2ccc(OCc3cc(Cl)ccn3)cc2)no1 [Example 175, 3-(3-(4-(4-Chloro-pyridin-2-ylmethoxy)-benzyl)-isoxazol-5-yl)-5-fluoro-pyridin-2-ylamine]	0.78 µg/mL (≈ 1.9 µM)	–	–	1.56 µg/mL (≈ 3.8 µM)
Nc1ccc(-c2cc(Cc3ccc(COc4ccccn4)nc3)no2)c(N)n1 [Example 154]	0.78 µg/mL (≈ 2.08 µM)	–	–	1.56 µg/mL (≈ 4.17 µM)
COCc1ccc(-c2cc(Cc3ccc(Cc4ccc(C)o4)cc3)no2)c(N)n1 [Example 165]	0.78 µg/mL (≈ 2 µM)	–	–	1.56 µg/mL (≈ 4.01 µM)
Nc1ncccc1-c1cc(Cc2ccc(OCc3ccc(F)cn3)c(F)c2)no1 [Example 94, 3-(3-(3-Fluoro-4-(5-fluoro-pyridin-2-ylmethoxy)-benzyl)-isoxazol-5-yl)pyridin-2-ylamine]	0.78 µg/mL (≈ 1.98 µM)	–	–	0.39 µg/mL (≈ 0.989 µM)
c1ccc(COc2ccc(Cc3cc(-c4cccnc4)on3)cc2)cc1 [Example 201, 3-(3-(4-Benzyloxy-benzyl)-isoxazol-5-yl)-pyridine]	0.78 µg/mL (≈ 2.28 µM)	–	–	0.39 µg/mL (≈ 1.14 µM)
Nc1ccc(-c2cc(Cc3ccc(Oc4ccccc4F)nc3)no2)c(N)n1 [Example 134, 3-(3-(6-(2-Fluoro-phenoxy)-pyridin-3-ylmethyl)-isoxazol-5-yl)-pyridin-2,6-diamine]	0.39 µg/mL (≈ 1.03 µM)	–	–	0.78 µg/mL (≈ 2.07 µM)
Nc1ncccc1-c1cc(Cc2ccc(COc3ccccn3)cc2F)no1 [Example 204, 3-(3-(2-Fluoro-4-(pyridin-2-yloxymethyl)-benzyl)-isoxazol-5-yl)-pyridin-2-ylamine]	0.2 µg/mL (≈ 0.531 µM)	–	–	0.39 µg/mL (≈ 1.04 µM)
CCCCOc1ccc(Cc2cc(-c3cccnc3N)on2)cc1 [Example 67, 3-(3-(4-Butoxy-benzyl)-isoxazol-5-yl)-pyridin-2-ylamine]	1.56 µg/mL (≈ 4.82 µM)	–	–	0.78 µg/mL (≈ 2.41 µM)
Nc1ncccc1-c1cc(Cc2ccc(NCc3ccccc3)cc2)no1 [Example 68, 3-(3-(4-Benzylamino-benzyl)-isoxazol-5-yl)-pyridin-2-ylamine]	0.1 µg/mL (≈ 0.281 µM)	–	–	0.39 µg/mL (≈ 1.09 µM)
Nc1ccc(-c2cnn(Cc3ccc(OCc4ccccn4)cc3)c2)c(N)n1 [Example 199]	3.13 µg/mL (≈ 8.4 µM)	–	–	6.25 µg/mL (≈ 16.8 µM)
N#Cc1cccc(COc2ccc(Cc3cc(-c4ccc(N)nc4N)on3)cc2)c1 [Example 212, 3-(4-(5-(2,6-Diamino-pyridin-3-yl)-isoxazol-3-ylmethyl)-phenoxymethyl)benzonitrile]	0.78 µg/mL (≈ 1.96 µM)	–	–	0.78 µg/mL (≈ 1.96 µM)
